# Source: patent US12390472B2 (SUZHOU SINOVENT PHARMACEUTICALS CO., LTD., priority 2018, dated 2025)
# Key:
# Pfeiffer = assay: Methylated lysine of histone-H3 (H3K27Me3) detection by ELISA, Pfeiffer cells; format: cell-based, human; settings: Homo sapiens, 168 h, 7 days treatment, H3K27Me3 normalized to total histone-3, read-out: IC50 of cell methylation, Pfeiffer
# How it was run: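 Cells were treated 7 days with compound (4-fold dilutions, 20 uM-0.009 nM), then lysed hypotonically with NaCl adjusted to ~100 mM. Lysate-coated plates were probed by ELISA for H3K27Me3 and total H3 (TMB, A450). Methylation signal was normalised to total H3 before curve fitting.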
# EZH2 (Y641F) = EZH2 (Y641F) (Homo sapiens (Human), UniProt Q15910, Y641F); assay: Test on EZH2 (Y641F) inhibitory activity; format: biochemical
# Method: Compounds at different concentrations were dissolved in 100% DMSO and transferred to test plates, and the final concentration of DMSO was 1%. Enzyme solution and substrate SAM solution were prepared with 1-fold reaction buffer (optimized Tris buffer). 5 uL of enzyme solution was added to the test plate and wells only added with 5 uL of reaction buffer were used as negative control wells. After incubation at room temperature for 15 min, the plate was added with 5 uL of substrate solution per well to initiate the reaction, and then incubated at room temperature for 60 min. 5 uL of receptor solution was added and the plate was incubated away from light at room temperature for 60 min. 10 uL of donor solution was added and the plate was incubated away from light at room temperature for 30 min. The endpoint values were read on the Envision and the IC50 was calculated.
# Data were fitted by GraphPad Prism 5 software and inhibition rate was calculated according to equation (1) Inh %=(Max−Signal)/(Max−Min)×100 (1)
# IC50 was calculated using equation (2) Y=Bottom+(Top−Bottom)/(1+10^((Log IC50−X)×Hill Slope))
# Y: inhibition rate; X: concentration of the compound
# [1] = In vivo pharmacokinetic properties in mice; design: species or system mouse; settings: male ICR mice
# How it was run: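 Male ICR mice, n=3 per group, dosed once at 5 mg/kg IV in 10% DMSO/90% (20% Captisol) or 250 mg/kg intragastrically in 0.5% CMC-Na/0.1% Tween 80 (pH 3-4). EDTA-K2 plasma sampled from 5 min to 24 h; compound levels measured by LC-MS/MS.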
# [2] = test system: subcutaneous xenograft tumor model of human B lymphocyte Pfeiffer; assay: In vivo efficacy in subcutaneous xenograft tumor model of human B lymphocyte Pfeiffer; design: species or system mouse; settings: SCID Beige mice, 100 mg/kg p.o. QD 21 days, tumor volume 21 days after administration
# Method: Human B lymphocyte strain Pfeiffer was cultured in vitro, in a monolayer way, in a RPMI-1640 medium containing 10% fetal bovine serum, 100 U/mL penicillin and 100 μg/mL streptomycin in an incubator at 37° C./5% CO2. Conventional medium refreshment and subculturing were carried out twice a week, and cells in logarithmic growth phase were collected and used for tumor inoculation after being counted.
# Female SCID Beige mice, aged 6-8 weeks and weighed 18-22 g were used in the experiment. The experiment started after 7-day adaptive feed.
# Each mouse was inoculated subcutaneously with 10×10^6 Pfeiffer cells in a volume of 0.2 mL in the right side of the neck. The cells were suspended with PBS and matrigel (volume ratio 1:1). After the average tumor volume reached 130 mm^3, the mice were divided into groups with 8 mice per group for administration. The administration volume was 10 uL/g and the dose was 100 mg/kg if there's no special labeling ((p.o. administration, QD, continuous administration for 21 days).
# Animal body weights were measured twice weekly and animal mortality and side effects within each group were recorded based on the number of animals in the group.
# The experimental indices were to investigate whether tumor growth was inhibited or delayed or the tumor was cured. Tumor diameters were measured twice weekly using a vernier caliper. The tumor volume was calculated according to the following formula: V=0.5 a×b^2, where a and b represent the long diameter and short diameter of the tumor, respectively. The tumor growth inhibitions (TGIs) of the compounds were evaluated by T/C (%). The percentage value of T/C (%) is an index for reflecting the tumor growth inhibition, where T and C represent the average tumor volume of the administration group and the control group, respectively, at a certain day.
# The tumor growth inhibition rate was calculated according to the following formula: TGI (%)=(1−(Ti−T0)/(Vi−V0))×100, where Ti is the average tumor volume of a certain administration group on a certain day, T0 is the average tumor volume of the administration group at the start of administration, Vi is the average tumor volume of the vehicle control group on a certain day (same day as Ti) and V0 is the average tumor volume of the vehicle control group at the start of administration.
# Relative tumor volumes at each time point for each group were statistically analyzed and differences among groups were assessed based on the data. The statistical method used for testing was one-way ANOVA.
# Sequence of EZH2 (Y641F) (Q15910 whole entry Y641F): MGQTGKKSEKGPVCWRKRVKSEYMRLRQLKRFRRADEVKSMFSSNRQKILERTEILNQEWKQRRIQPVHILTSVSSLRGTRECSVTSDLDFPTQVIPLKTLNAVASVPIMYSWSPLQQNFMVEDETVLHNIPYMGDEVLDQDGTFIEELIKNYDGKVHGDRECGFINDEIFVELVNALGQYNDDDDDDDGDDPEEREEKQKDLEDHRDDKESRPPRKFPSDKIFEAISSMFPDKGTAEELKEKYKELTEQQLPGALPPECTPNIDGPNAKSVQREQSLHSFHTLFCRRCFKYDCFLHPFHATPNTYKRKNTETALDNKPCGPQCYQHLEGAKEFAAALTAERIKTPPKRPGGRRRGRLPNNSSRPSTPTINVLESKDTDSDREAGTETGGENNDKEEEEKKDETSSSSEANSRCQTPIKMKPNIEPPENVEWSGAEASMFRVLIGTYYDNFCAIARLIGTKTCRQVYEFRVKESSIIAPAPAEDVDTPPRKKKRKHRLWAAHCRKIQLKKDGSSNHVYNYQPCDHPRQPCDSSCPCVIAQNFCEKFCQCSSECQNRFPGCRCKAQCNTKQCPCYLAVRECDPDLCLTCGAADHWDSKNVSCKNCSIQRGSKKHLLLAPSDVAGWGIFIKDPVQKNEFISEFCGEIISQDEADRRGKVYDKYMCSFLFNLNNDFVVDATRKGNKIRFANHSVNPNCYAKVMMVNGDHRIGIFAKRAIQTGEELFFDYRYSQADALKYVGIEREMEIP
# Sequence of EZH2 (Y641F) (O75530 whole entry partner): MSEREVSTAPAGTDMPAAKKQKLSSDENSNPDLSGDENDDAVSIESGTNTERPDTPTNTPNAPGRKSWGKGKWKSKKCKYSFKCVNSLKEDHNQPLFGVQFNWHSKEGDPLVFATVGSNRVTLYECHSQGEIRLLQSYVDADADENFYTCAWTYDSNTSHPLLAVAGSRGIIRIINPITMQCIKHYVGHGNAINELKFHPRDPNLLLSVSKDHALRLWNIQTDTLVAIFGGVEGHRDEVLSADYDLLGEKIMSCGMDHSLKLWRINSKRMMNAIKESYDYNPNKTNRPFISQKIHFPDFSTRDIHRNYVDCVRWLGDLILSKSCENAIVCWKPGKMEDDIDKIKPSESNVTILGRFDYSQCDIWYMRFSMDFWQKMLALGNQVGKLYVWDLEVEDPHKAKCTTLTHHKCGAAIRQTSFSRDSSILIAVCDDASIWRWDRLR
# Sequence of EZH2 (Y641F) (Q15022 whole entry partner): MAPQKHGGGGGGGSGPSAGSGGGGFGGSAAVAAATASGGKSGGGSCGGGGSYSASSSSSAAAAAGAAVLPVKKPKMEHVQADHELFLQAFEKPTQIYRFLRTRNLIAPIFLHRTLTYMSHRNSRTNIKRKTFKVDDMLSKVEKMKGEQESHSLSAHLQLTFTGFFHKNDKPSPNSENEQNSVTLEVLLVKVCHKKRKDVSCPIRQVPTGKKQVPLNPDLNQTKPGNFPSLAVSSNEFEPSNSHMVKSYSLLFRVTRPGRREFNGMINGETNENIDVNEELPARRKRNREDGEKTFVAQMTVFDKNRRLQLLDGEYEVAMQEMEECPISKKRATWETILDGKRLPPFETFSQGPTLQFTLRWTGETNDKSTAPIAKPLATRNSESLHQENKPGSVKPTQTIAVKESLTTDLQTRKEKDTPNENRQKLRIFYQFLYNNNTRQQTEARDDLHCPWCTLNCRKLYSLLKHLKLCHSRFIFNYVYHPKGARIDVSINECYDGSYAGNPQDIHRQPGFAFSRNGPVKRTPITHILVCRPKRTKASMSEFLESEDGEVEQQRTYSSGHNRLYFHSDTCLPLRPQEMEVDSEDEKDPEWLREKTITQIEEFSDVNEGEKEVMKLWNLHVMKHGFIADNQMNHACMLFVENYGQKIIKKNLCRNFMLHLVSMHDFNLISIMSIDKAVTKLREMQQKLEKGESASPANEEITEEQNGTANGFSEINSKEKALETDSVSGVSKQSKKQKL
smiles,measurement,setting,value
"CCN(c1cc(O[C@H]2C[C@H](N3C[C@@H](C)O[C@@H](C)C3)C2)cc(C(=O)NCc2c(C)cc(C)[nH]c2=O)c1C)C1CCC(F)(F)CC1 [Example 45, 3-((4,4-difluorocyclohexyl)(ethyl)amino)-N-((4,6-dimethyl-2-oxo-1,2-dihydropyridin-3-yl)methyl)-5-(trans-3-(cis-2,6-dimethylmorpholinyl)cyclobutoxy)-2-methylbenzamide]",IC50,Pfeiffer,50 to 500 nM
same,IC50,EZH2 (Y641F),3 nM
same,F,[1]; intragastric 250 mg/kg vs intravenous 5 mg/kg,43.5%
same,CL,[1]; single intravenous 5 mg/kg and intragastric 250 mg/kg study,37.0 ± 8.82 mL/min/lg
same,AUC(0-inf),"[1]; mouse, plasma, oral, single intravenous 5 mg/kg and intragastric 250 mg/kg study",50900 ng·h/mL
same,Cmax,"[1]; mouse, plasma, oral, single intravenous 5 mg/kg and intragastric 250 mg/kg study, read-out: Cmax",10500 ± 436 ng/mL
same,Tmax,"[1]; mouse, plasma, oral, single intravenous 5 mg/kg and intragastric 250 mg/kg study, read-out: Tmax",1 h
same,half-life,"[1]; mouse, plasma, single intravenous 5 mg/kg and intragastric 250 mg/kg study",7.44 ± 2.75 h
same,TGI,[2],66.20%
